The structures appear in SMILES notation. Bridge positions count the residues as written; N and C are the ends. Square brackets hold non-standard residues; d marks the D form. Peptide text beside a SMILES is read from it. * marks the point of attachment. ξ: configuration not given here. Bip = N[C@@H](Cc1ccc(-c2ccccc2)cc1)C(=O)O; Tyr(3-Me) = Cc1cc(C[C@H](N)C(=O)O)ccc1O; Phe(3-Me) = Cc1cccc(C[C@H](N)C(=O)O)c1; Cha = N[C@@H](CC1CCCCC1)C(=O)O; hSer = N[C@@H](CCO)C(=O)O; Carboxymethyl = O=C(O)C*; Orn = NCCC[C@H](N)C(=O)O; Aun = NCCCCCCCCCCC(=O)O; Dab = NCC[C@H](N)C(=O)O; Dap = NC[C@H](N)C(=O)O; ξS = NC(CO)C(=O)O

The target of this assay is T1, PD-1/PD-L1 interaction (PE-labeled human PD-L1-Ig binding to Jurkat cell line over-expressing human PD-1) (Homo sapiens, UniProt Q15116).
T1 construct: expressed in transfected cells; host or cells: Jurkat
T1 sequence (Q15116 25-288): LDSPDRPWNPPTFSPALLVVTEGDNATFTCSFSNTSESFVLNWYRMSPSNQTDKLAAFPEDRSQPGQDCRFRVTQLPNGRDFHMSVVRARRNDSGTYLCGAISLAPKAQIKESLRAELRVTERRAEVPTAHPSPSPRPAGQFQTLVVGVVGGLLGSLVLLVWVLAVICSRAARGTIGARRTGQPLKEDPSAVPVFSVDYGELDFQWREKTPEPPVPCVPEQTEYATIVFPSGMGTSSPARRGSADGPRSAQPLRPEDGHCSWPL
The assay is described as follows: Jurkat-PD-1 Cell Binding High-Content Screening Assay (CBA). It is filed as cell-based. Particulars: Jurkat cell line over-expressing human PD-1; PE-labeled PD-L1-Ig 20 nM final; read-out: Jurkat hPD1-PDL1 IC50. A digest of the protocol:
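First, compound is added to PD-1-expressing Jurkat cells in serum-containing DMEM and left 2 h at 37° C. Next, PE-conjugated PD-L1-Ig is introduced at 20 nM final concentration for 1 hour. Finally, cells are fixed in 4% paraformaldehyde with Hoechst 33342, washed and imaged.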
Take `Cc1cccc(C[C@@H]2NC(=O)[C@H](CC(=O)O)NC(=O)[C@H](Cc3ccc(OCC(=O)O)cc3)NC(=O)[C@H](CN)NC(=O)CSC[C@@H](C(=O)N[C@@H](CCN)C(=O)NCCCCCCCCCCC(=O)O)NC(=O)[C@H]([C@@H](C)O)NC(=O)[C@H](C(C)C)NC(=O)[C@H](CC3CCCCC3)NC(=O)[C@H](CCN)NC(=O)[C@@H](CC(C)C)NC(=O)[C@H](CCN)NC(=O)[C@H](Cc3ccc(OCC(=O)O)cc3)NC(=O)[C@H](Cc3ccc(-c4ccccc4)cc3)NC(=O)[C@H](Cc3ccc(O)cc3)NC2=O)c1` [Compound 2087] ({CH2CO}-[Dap]Y(Carboxymethyl)D[Phe(3-Me)]Y[Bip]Y(Carboxymethyl)[Dab][dL][Dab][Cha]VTC[Dab][Aun]-OH; thioether N-14): the IC50 (usually the concentration that gives 50% inhibition) amounted to 15.1 nM.
Next, `Cc1cccc(C[C@@H]2NC(=O)[C@H](CC(=O)O)NC(=O)[C@H](Cc3ccc(OCC(=O)O)cc3)NC(=O)[C@H](CN)NC(=O)CSC[C@@H](C(=O)N[C@@H](CCCN)C(=O)NCCCCCCCCCCC(=O)O)NC(=O)[C@H]([C@@H](C)O)NC(=O)[C@H](C(C)C)NC(=O)[C@H](CC3CCCCC3)NC(=O)[C@H](CCN)NC(=O)[C@@H](CC(C)C)NC(=O)[C@H](CCN)NC(=O)[C@H](Cc3ccc(OCC(=O)O)cc3)NC(=O)[C@H](Cc3ccc(-c4ccccc4)cc3)NC(=O)[C@H](Cc3ccc(O)cc3)NC2=O)c1` [Compound 2088] ({CH2CO}-[Dap]Y(Carboxymethyl)D[Phe(3-Me)]Y[Bip]Y(Carboxymethyl)[Dab][dL][Dab][Cha]VTC[Orn][Aun]-OH; thioether N-14): 14.8 nM; `Cc1cccc(C[C@@H]2NC(=O)[C@H](CC(=O)O)NC(=O)[C@H](Cc3ccc(OCC(=O)O)cc3)NC(=O)[C@H](Cc3ccc(OCC(=O)O)cc3)NC(=O)CSC[C@@H](C(=O)N[C@@H](CCN)C(=O)NCCCCCCCCCCC(=O)O)NC(=O)[C@H](CO)NC(=O)[C@H](C(C)C)NC(=O)[C@H](CC3CCCCC3)NC(=O)[C@H](CCN)NC(=O)[C@@H](CC(C)C)NC(=O)[C@H](CCCN)NC(=O)[C@H](Cc3ccc(OCC(=O)O)cc3)NC(=O)[C@H](Cc3ccc(-c4ccccc4)cc3)NC(=O)[C@H](C(C)C)NC2=O)c1` [Compound 2089] ({CH2CO}-Y(Carboxymethyl)Y(Carboxymethyl)D[Phe(3-Me)]V[Bip]Y(Carboxymethyl)[Orn][dL][Dab][Cha]VSC[Dab][Aun]-OH; thioether N-14): 43.8 nM; `Cc1cccc(C[C@@H]2NC(=O)[C@H](CC(=O)O)NC(=O)[C@H](Cc3ccc(OCC(=O)O)cc3)NC(=O)[C@H](CN)NC(=O)CSC[C@@H](C(=O)N[C@@H](CCN)C(=O)NCCCCCCCCCCC(=O)O)NC(=O)[C@H]([C@@H](C)O)NC(=O)[C@H](C(C)C)NC(=O)[C@H](CC3CCCCC3)NC(=O)[C@H](CCN)NC(=O)[C@@H](CC(C)C)NC(=O)[C@H](CCCN)NC(=O)[C@H](Cc3ccc(O)cc3)NC(=O)[C@H](Cc3ccc(-c4ccccc4)cc3)NC(=O)[C@H](Cc3ccc(OCC(=O)O)cc3)NC2=O)c1` [Compound 2090] ({CH2CO}-[Dap]Y(Carboxymethyl)D[Phe(3-Me)]Y(Carboxymethyl)[Bip]Y[Orn][dL][Dab][Cha]VTC[Dab][Aun]-OH; thioether N-14): 18.4 nM.
The same measure for `Cc1cccc(C[C@@H]2NC(=O)[C@H](CC(=O)O)NC(=O)[C@H](Cc3ccc(OCC(=O)O)cc3)NC(=O)[C@H](CN)NC(=O)CSC[C@@H](C(=O)N[C@@H](CCN)C(=O)NCCCCCCCCCCC(=O)O)NC(=O)[C@H](CO)NC(=O)[C@H](C(C)C)NC(=O)[C@H](CC3CCCCC3)NC(=O)[C@H](CCN)NC(=O)[C@@H](CC(C)C)NC(=O)[C@H](CCCN)NC(=O)[C@H](Cc3ccc(O)cc3)NC(=O)[C@H](Cc3ccc(-c4ccccc4)cc3)NC(=O)[C@H](Cc3ccc(OCC(=O)O)cc3)NC2=O)c1` [Compound 2091] ({CH2CO}-[Dap]Y(Carboxymethyl)D[Phe(3-Me)]Y(Carboxymethyl)[Bip]Y[Orn][dL][Dab][Cha]VSC[Dab][Aun]-OH; thioether N-14): 26.1 nM; for `Cc1cccc(C[C@@H]2NC(=O)[C@H](CC(=O)O)NC(=O)[C@H](Cc3ccc(OCC(=O)O)cc3)NC(=O)[C@H]([C@@H](C)O)NC(=O)CSC[C@@H](C(=O)N[C@@H](CCN)C(=O)NCCCCCCCCCCC(=O)O)NC(=O)[C@H]([C@@H](C)O)NC(=O)[C@H](C(C)C)NC(=O)[C@H](CC3CCCCC3)NC(=O)[C@H](CCN)NC(=O)[C@@H](CC(C)C)NC(=O)[C@H](CCCN)NC(=O)[C@H](Cc3ccc(O)cc3)NC(=O)[C@H](Cc3ccc(-c4ccccc4)cc3)NC(=O)[C@H](Cc3ccc(OCC(=O)O)cc3)NC2=O)c1` [Compound 2092] ({CH2CO}-TY(Carboxymethyl)D[Phe(3-Me)]Y(Carboxymethyl)[Bip]Y[Orn][dL][Dab][Cha]VTC[Dab][Aun]-OH; thioether N-14): 25.1 nM.
The same measure for `Cc1cccc(C[C@@H]2NC(=O)[C@H](CC(=O)O)NC(=O)[C@H](Cc3ccc(OCC(=O)O)cc3)NC(=O)[C@H]([C@@H](C)O)NC(=O)CSC[C@@H](C(=O)N[C@@H](CCN)C(=O)NCCCCCCCCCCC(=O)O)NC(=O)[C@H](CO)NC(=O)[C@H](C(C)C)NC(=O)[C@H](CC3CCCCC3)NC(=O)[C@H](CCN)NC(=O)[C@@H](CC(C)C)NC(=O)[C@H](CCCN)NC(=O)[C@H](Cc3ccc(OCC(=O)O)cc3)NC(=O)[C@H](Cc3ccc(-c4ccccc4)cc3)NC(=O)[C@H](Cc3ccc(O)cc3)NC2=O)c1` [Compound 2093] ({CH2CO}-TY(Carboxymethyl)D[Phe(3-Me)]Y[Bip]Y(Carboxymethyl)[Orn][dL][Dab][Cha]VSC[Dab][Aun]-OH; thioether N-14): 23.2 nM; for `Cc1cccc(C[C@@H]2NC(=O)[C@H](CC(=O)O)NC(=O)[C@H](Cc3ccc(OCC(=O)O)cc3)NC(=O)[C@H](CCCNC(=N)N)NC(=O)CSC[C@@H](C(=O)N[C@@H](CCN)C(=O)NCCCCCCCCCCC(=O)O)NC(=O)[C@H](CCO)NC(=O)[C@H](C(C)C)NC(=O)[C@H](CC3CCCCC3)NC(=O)[C@H](CCN)NC(=O)[C@@H](CC(C)C)NC(=O)[C@H](CCCN)NC(=O)[C@H](Cc3ccc(OCC(=O)O)cc3)NC(=O)[C@H](Cc3ccc(-c4ccccc4)cc3)NC(=O)[C@H](Cc3ccc(OCC(=O)O)cc3)NC2=O)c1` [Compound 2094] ({CH2CO}-RY(Carboxymethyl)D[Phe(3-Me)]Y(Carboxymethyl)[Bip]Y(Carboxymethyl)[Orn][dL][Dab][Cha]V[hSer]C[Dab][Aun]-OH; thioether N-14): 6.6 nM.
`Cc1cccc(C[C@@H]2NC(=O)[C@H](CC(=O)O)NC(=O)[C@H](Cc3ccc(OCC(=O)O)cc3)NC(=O)[C@H](CCCNC(=N)N)NC(=O)CSC[C@@H](C(=O)N[C@@H](CCN)C(=O)NCCCCCCCCCCC(=O)O)NC(=O)[C@H](CCO)NC(=O)[C@H](C(C)C)NC(=O)[C@H](CC3CCCCC3)NC(=O)[C@H](CCN)NC(=O)[C@@H](CC(C)C)NC(=O)[C@H](CCCN)NC(=O)[C@H](Cc3ccc(O)cc3)NC(=O)[C@H](Cc3ccc(-c4ccccc4)cc3)NC(=O)[C@H](Cc3ccc(OCC(=O)O)cc3)NC2=O)c1` [Compound 2095] ({CH2CO}-RY(Carboxymethyl)D[Phe(3-Me)]Y(Carboxymethyl)[Bip]Y[Orn][dL][Dab][Cha]V[hSer]C[Dab][Aun]-OH; thioether N-14): the IC50 was determined as 9.5 nM.
The same measure for `Cc1cc(C[C@@H]2NC(=O)[C@H](CC(=O)O)NC(=O)[C@H](Cc3ccc(OCC(=O)O)cc3)NC(=O)[C@H](CN)NC(=O)CSC[C@@H](C(=O)N[C@@H](CCN)C(=O)NCCCCCCCCCCC(=O)O)NC(=O)[C@H](CCO)NC(=O)[C@H](C(C)C)NC(=O)[C@H](CC3CCCCC3)NC(=O)[C@H](CCN)NC(=O)[C@@H](CC(C)C)NC(=O)[C@H](CCCN)NC(=O)[C@H](Cc3ccc(OCC(=O)O)cc3)NC(=O)[C@H](Cc3ccc(-c4ccccc4)cc3)NC(=O)[C@H](C(C)C)NC2=O)ccc1O` [Compound 2096] ({CH2CO}-[Dap]Y(Carboxymethyl)D[Tyr(3-Me)]V[Bip]Y(Carboxymethyl)[Orn][dL][Dab][Cha]V[hSer]C[Dab][Aun]-OH; thioether N-14): 36.5 nM.
Next, `Cc1cccc(C[C@@H]2NC(=O)[C@H](CC(=O)O)NC(=O)[C@H](Cc3ccc(OCC(=O)O)cc3)NC(=O)[C@H](CN)NC(=O)CSC[C@@H](C(=O)N[C@@H](CCN)C(=O)NCCCCCCCCCCC(=O)O)NC(=O)[C@@H](CO)NC(=O)[C@H](C(C)C)NC(=O)[C@H](CC3CCCCC3)NC(=O)[C@H](CCN)NC(=O)[C@@H](CC(C)C)NC(=O)[C@H](CCCN)NC(=O)[C@H](Cc3ccc(OCC(=O)O)cc3)NC(=O)[C@H](Cc3ccc(-c4ccccc4)cc3)NC(=O)[C@H](C(C)C)NC2=O)c1` [Compound 2097] ({CH2CO}-[Dap]Y(Carboxymethyl)D[Phe(3-Me)]V[Bip]Y(Carboxymethyl)[Orn][dL][Dab][Cha]V[dS]C[Dab][Aun]-OH; thioether N-14): 38.8 nM; `Cc1cccc(C[C@@H]2NC(=O)[C@H](CC(=O)O)NC(=O)[C@H](Cc3ccc(OCC(=O)O)cc3)NC(=O)[C@H](CN)NC(=O)CSC[C@@H](C(=O)N[C@@H](CCN)C(=O)NCCCCCCCCCCC(=O)O)NC(=O)C(CO)NC(=O)[C@H](C(C)C)NC(=O)[C@H](CC3CCCCC3)NC(=O)[C@H](CCN)NC(=O)[C@@H](CC(C)C)NC(=O)[C@H](CCCN)NC(=O)[C@H](Cc3ccc(O)cc3)NC(=O)[C@H](Cc3ccc(-c4ccccc4)cc3)NC(=O)[C@H](C(C)C)NC2=O)c1` (stereo partly drawn) [Compound 2098] ({CH2CO}-[Dap]Y(Carboxymethyl)D[Phe(3-Me)]V[Bip]Y[Orn][dL][Dab][Cha]V[ξS]C[Dab][Aun]-OH; thioether N-14): 53.4 nM.

The values above are taken from patent US20260022142A1, “MACROCYCLIC IMMUNOMODULATORS” (Bristol-Myers Squibb Company, priority 2022, published 2026).
